Patent publication US8431563B2 (priority 2010, dated 2013)
Structures can show the parent of a compound that is named as a salt.

How the values were obtained:
[1] = target: T1, GKRP (Glucokinase Regulatory Protein) with human His-hepatic GK (Homo sapiens, UniProt Q14397); assay: GKRP NADPH Coupled Assay; assay type: biochemical; settings: GK-GKRP EC50 (NADPH-coupled), indirect measure of glucose-6-phosphate, fluorescence; 1 μM GKRP (10×), 20 nM GK (5×)
T1 sequence (Q14397 1-625): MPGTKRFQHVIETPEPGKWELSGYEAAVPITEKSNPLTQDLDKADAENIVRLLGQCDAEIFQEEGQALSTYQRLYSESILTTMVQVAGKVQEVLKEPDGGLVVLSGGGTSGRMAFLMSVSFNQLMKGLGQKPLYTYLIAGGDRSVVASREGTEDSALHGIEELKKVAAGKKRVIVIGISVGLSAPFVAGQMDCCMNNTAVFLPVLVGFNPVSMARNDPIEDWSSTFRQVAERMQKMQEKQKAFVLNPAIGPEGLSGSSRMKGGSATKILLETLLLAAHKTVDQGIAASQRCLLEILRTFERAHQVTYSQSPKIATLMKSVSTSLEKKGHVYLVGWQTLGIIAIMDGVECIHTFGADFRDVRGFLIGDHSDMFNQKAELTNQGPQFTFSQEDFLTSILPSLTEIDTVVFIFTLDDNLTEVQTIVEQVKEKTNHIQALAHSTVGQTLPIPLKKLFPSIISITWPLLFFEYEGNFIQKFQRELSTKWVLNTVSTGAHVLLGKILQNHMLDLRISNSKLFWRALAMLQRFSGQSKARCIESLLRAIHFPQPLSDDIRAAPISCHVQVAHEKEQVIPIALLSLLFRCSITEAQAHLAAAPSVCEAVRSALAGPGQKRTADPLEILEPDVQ
Procedure: (§1) This assay is used to directly measure the formation of ^13C-glucose-6-phosphate from ^13C-glucose by liquid chromatography-mass spectrometry (LC MS/MS). Begin by preparing the following solutions: Compound Buffer (CB): 50 mM Tris, pH 7.5/4 mM MgCl2/6% DMSO/fresh 10 mM DTT from 1M frozen stock. Enzyme Buffer (EB): 50 mM Tris, pH 7.5/4 mM MgCl2/6% DMSO/fresh 0.1% BSA/fresh 0.01% Brij-35 (10% BSA and 1% Brij-35 stock). GK (Glucokinase) Working Stock (5×): Dilute human His-hepatic GK to 30 nM in EB buffer. […] After 30 minutes add 10 μl of GK Working Stock (5×). Re-seal the plate and incubate for another 30 minutes at room temperature while mixing. After the second 30 minutes, stop the reaction by the addition of 50 μl of 100% acetonitrile, seal, and mix for 5-10 minutes. Run 10 μl of this sample through the LC MS/MS (API 3200, Applied Biosystems Inc., Carlsbad, Calif.).
This assay is used as an indirect measure of glucose-6-phosphate (G6P) formed from glucose due to the enzymatic activity of glucokinase. Assay format is the same as for GKRP LC MS/MS Biochemical Assay with the following exceptions. GK Working Stock (5×): Dilute human His-hepatic GK to 20 nM in EB buffer. Stop & Detection Reagent (2×): Dilute β-nicotinamide adenine dinucleotide phosphate sodium salt (β-NADP) (Aldrich-Sigma, St. Louis, Mo.) to 2 mM from 100 mM stock (stock in 10 mM Tris, pH 9.2) and dilute glucose-6-phosphate dehydrogenase (Aldrich-Sigma, St. Louis, Mo.) to 0.04 Unit/μl from 10 Unit/μl (stock in 10 mM Tris pH 7.5/0.05% Brij-35) in 0.2 M Tris, pH 9.2/8% DMSO. After the initial 30 minute incubation add 10 μl of 20 nM GK diluted in EB (5×). Re-seal the plate and incubate for another 1 hour at room temperature while mixing. After 1 hour remove the seal and add 50 μl of Stop & Detection Reagent and incubate for 5 minutes at room temperature while mixing.

[2] = target: T1, GKRP (Glucokinase Regulatory Protein) with human His-hepatic GK; assay: GKRP LC MS/MS Biochemical Assay; settings: GK-GKRP EC50 (LC MS/MS), 13C-glucose-6-phosphate formation; 1 μM GKRP (10×), 30 nM GK (5×)
Procedure: GKRP LC MS/MS Biochemical Assay
as §1

Compound | EC50 [1] | EC50 [2]
CC(O)(c1ccc(N2CCN(S(=O)(=O)c3cccs3)CC2COCc2cccnc2)cc1)C(F)(F)F (mixture of isomers) [Example 59, 1,1,1-trifluoro-2-(4-(2-((3-pyridinylmethoxy)methyl)-4-(2-thiophenylsulfonyl)-1-piperazinyl)phenyl)-2-propanol] | 4930 nM | 4930 nM
CC(O)(c1ccc(N2CCN(S(=O)(=O)c3cccs3)CC2CN2CCOCC2)cc1)C(F)(F)F (mixture of isomers) [Example 61, 1,1,1-trifluoro-2-(4-(2-(4-morpholinylmethyl)-4-(2-thiophenylsulfonyl)-1-piperazinyl)phenyl)-2-propanol] | 230 nM | 355 nM
CN(Cc1ccccc1)CC1CN(S(=O)(=O)c2cccs2)CCN1c1ccc(C(C)(O)C(F)(F)F)cc1 (mixture of isomers) [Example 62, 2-(4-(2-((benzyl(methyl)amino)methyl)-4-(2-thiophenylsulfonyl)-1-piperazinyl)phenyl)-1,1,1-trifluoro-2-propanol] | 1010 nM | 1220 nM
CC(O)(c1ccc(N2CCN(S(=O)(=O)c3cccs3)CC2Cc2ccncc2)cc1)C(F)(F)F (mixture of isomers) [Example 76, 1,1,1-trifluoro-2-(4-(2-(4-pyridinylmethyl)-4-(2-thiophenylsulfonyl)-1-piperazinyl)phenyl)-2-propanol trifluoroacetate] | 207 nM | 522 nM
O=S(=O)(c1ccccc1)N1CCN(c2ccc(C(O)(C3CC3)C(F)(F)F)cc2)CC1 (racemic) [Example 15, 1-cyclopropyl-2,2,2-trifluoro-1-(4-(4-(phenylsulfonyl)-1-piperazinyl)phenyl)ethanol] | 2620 nM | 2770 nM
CC(O)(c1ccc(-c2ccc(S(=O)(=O)c3ccccc3)c(Cl)c2)nc1)C(F)(F)F (racemic) [Example 18, 2-(6-(3-chloro-4-(phenylsulfonyl)phenyl)-3-pyridinyl)-1,1,1-trifluoro-2-propanol] | 3750 nM | 3570 nM
CC(O)(c1ccc(-c2ccc(S(=O)(=O)c3ccccc3)c(Cl)c2)cc1)C(F)(F)F (racemic) [Example 19, 2-(3′-chloro-4′-(phenylsulfonyl)-4-biphenylyl)-1,1,1-trifluoro-2-propanol] | 3580 nM | 4230 nM
CC(C)(O)C#Cc1cc(-c2ccc(C(C)(O)C(F)(F)F)cc2)ccc1S(=O)(=O)c1ccccc1 (racemic) [Example 20, 2-methyl-4-(4-(phenylsulfonyl)-4′-(2,2,2-trifluoro-1-hydroxy-1-methylethyl)-3-biphenylyl)-3-butyn-2-ol] | 1800 nM | 2250 nM
CC(O)(c1ccc(N2CCN(S(=O)(=O)c3ccccc3)CC2)cc1)C(F)(F)F (racemic) [Example 24, 1,1,1-trifluoro-2-(4-(4-(phenylsulfonyl)-1-piperazinyl)phenyl)-2-propanol] | 1840 nM | 3960 nM
Cc1cccc(CC2CN(S(=O)(=O)c3cccs3)CCN2c2ccc(C(O)(C(F)(F)F)C(F)(F)F)cc2)c1 (racemic) [Example 42, 1,1,1,3,3,3-hexafluoro-2-(4-(2-(3-methylbenzyl)-4-(2-thiophenylsulfonyl)-1-piperazinyl)phenyl)-2-propanol hydrochloride] | 724 nM | 688 nM
Cc1ccc(CC2CN(S(=O)(=O)c3cccs3)CCN2c2ccc(C(O)(C(F)(F)F)C(F)(F)F)cc2)cc1 (racemic) [Example 43, 1,1,1,3,3,3-hexafluoro-2-(4-(2-(4-methylbenzyl)-4-(2-thiophenylsulfonyl)-1-piperazinyl)phenyl)-2-propanol hydrochloride] | 2500 nM | 2620 nM
CC(O)(c1ccc(N2CCN(S(=O)(=O)c3cccs3)CC2CN2CC3CCC(C2)O3)cc1)C(F)(F)F (racemic) [Example 46, 1,1,1-trifluoro-2-(4-(2-(8-oxa-3-azabicyclo[3.2.1]oct-3-ylmethyl)-4-(2-thiophenylsulfonyl)-1-piperazinyl)phenyl)-2-propanol] | 154 nM | 178 nM
CC1(C#Cc2cc(C(C)(O)C(F)(F)F)ccc2N2CCN(S(=O)(=O)c3cccs3)CC2)COC1 (racemic) [Example 75, 1,1,1-trifluoro-2-(3-((3-methyl-3-oxetanyl)ethynyl)-4-(4-(2-thiophenylsulfonyl)-1-piperazinyl)phenyl)-2-propanol] | 2900 nM | 2800 nM
CC(O)(c1ccc(N2CCN(S(=O)(=O)c3ccccc3)CC2)cc1)C(F)(F)F (single isomer, unassigned) [Example 24 Peak #1, 1,1,1-trifluoro-2-(4-(4-(phenylsulfonyl)-1-piperazinyl)phenyl)-2-propanol] | 2570 nM | 2070 nM
C[C@H]1CN(S(=O)(=O)c2nccs2)CCN1c1ccc(C(C)(O)C(F)(F)F)cc1 (single isomer, unassigned) [Example 34 Peak #2] | 1940 nM | 1920 nM
CC(O)(c1ccc(N2CCN(S(=O)(=O)c3cccs3)CC2CC2CCOCC2)cc1)C(F)(F)F (single isomer, unassigned) [Example 37 Peak #1, 1,1,1-trifluoro-2-(4-(2-(tetrahydro-2H-pyran-4-ylmethyl)-4-(2-thiophenylsulfonyl)-1-piperazinyl)phenyl)-2-propanol] | 111 nM | 162 nM
CC(O)(c1ccc(N2CCN(S(=O)(=O)c3cccs3)CC2CC2CCOCC2)cc1)C(F)(F)F (single isomer, unassigned) [Example 37 Peak #2, 1,1,1-trifluoro-2-(4-(2-(tetrahydro-2H-pyran-4-ylmethyl)-4-(2-thiophenylsulfonyl)-1-piperazinyl)phenyl)-2-propanol] | 124 nM | 128 nM
C[C@H]1COCCN1CC1CN(S(=O)(=O)c2cccs2)CCN1c1ccc(C(C)(O)C(F)(F)F)cc1 (single isomer, unassigned) [Example 45 Peak #1] | 52 nM | 62 nM
CC(O)(c1ccc(N2CCN(S(=O)(=O)c3cccs3)C[C@@H]2Cc2ccccc2)cc1)C(F)(F)F (single isomer, unassigned) [Example 65 Peak #1] | 367 nM | 643 nM
CC(O)(c1ccc(N2CCN(S(=O)(=O)c3cccs3)C[C@@H]2Cc2ccccc2)cc1)C(F)(F)F (single isomer, unassigned) [Example 65 Peak #2] | 166 nM | 240 nM
O=S(=O)(c1ccccc1)N1CCN(c2ccc(C(O)(C(F)(F)F)C(F)(F)F)cc2)CC1 [Example 2, 1,1,1,3,3,3-hexafluoro-2-(4-(4-(phenylsulfonyl)-1-piperazinyl)phenyl)-2-propanol] | 803 nM | 1100 nM
O=S(=O)(c1ccsc1)N1CCN(c2ccc(C(O)(C(F)(F)F)C(F)(F)F)cc2)CC1 [Example 3, 1,1,1,3,3,3-hexafluoro-2-(4-(4-(3-thiophenylsulfonyl)-1-piperazinyl)phenyl)-2-propanol] | 597 nM | 964 nM
Cc1ccccc1S(=O)(=O)N1CCN(c2ccc(C(O)(C(F)(F)F)C(F)(F)F)cc2)CC1 [Example 4, 1,1,1,3,3,3-hexafluoro-2-(4-(4-((2-methylphenyl)sulfonyl)-1-piperazinyl)phenyl)-2-propanol] | 1270 nM | 1710 nM
Cn1ccc(S(=O)(=O)N2CCN(c3ccc(C(O)(C(F)(F)F)C(F)(F)F)cc3)CC2)n1 [Example 5, 1,1,1,3,3,3-hexafluoro-2-(4-(4-((1-methyl-1H-pyrazol-3-yl)sulfonyl)-1-piperazinyl)phenyl)-2-propanol] | 1580 nM | 5380 nM
